Measured values published in PubChem BioAssay (NCI).
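Exposure lasted 48 hours, with cells grown in 96-well plates and compounds tested at five concentrations. GI50 marks 50% less growth. Definition used: TGI = concentration required for complete inhibition of growth.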

Experiments:
Test in all cases: NCI tumour cell line growth inhibition, 48 h
RXF-631 renal = test system: RXF-631 renal
DLD-1 colon = test system: DLD-1 colon
DMS 273 small cell lung = test system: DMS 273 small cell lung
HOP-18 NSCLC = test system: HOP-18 NSCLC
KM20L2 colon = test system: KM20L2 colon
MDA-N = test system: MDA-N
XF 498 CNS = test system: XF 498 CNS
P388 leukemia = test system: P388 leukemia
P388/ADR leukemia = test system: P388/ADR leukemia
SN12K1 renal = test system: SN12K1 renal

Compound: CCN(c1ccccc1)[C@H]1C(=O)N(c2ccc([N+](=O)[O-])cc2)[C@H]1c1ccc(OC)cc1
- TGI (RXF-631 renal): > 100 µM
- TGI (DLD-1 colon): > 100 µM
- TGI (DMS 273 small cell lung): > 100 µM

Compound: Cc1ccc(OC(=O)N2C/C(=C\c3ccccc3)C(=O)/C(=C/c3ccccc3)C2)cc1
- TGI (RXF-631 renal): > 100 µM
- TGI (DLD-1 colon): 28.1 µM
- TGI (HOP-18 NSCLC): > 91.2 µM
- TGI (KM20L2 colon): > 100 µM
- TGI (MDA-N): 15.3 µM
- TGI (DMS 273 small cell lung): 18.1 µM
- TGI (XF 498 CNS): 49.1 µM

Compound: COc1ccc(C)cc1NC(=S)C#N
- TGI (MDA-N): > 100 µM

Compound: Cc1cc(C)nc(NS(=O)(=O)c2ccc(Nc3c4ccccc4nc4c(C(=O)NCCN(C)C)cccc34)cc2)n1
- TGI (RXF-631 renal): 18 µM
- TGI (DLD-1 colon): 21.7 µM
- TGI (KM20L2 colon): 20.2 µM
- TGI (DMS 273 small cell lung): 11.2 µM
- TGI (XF 498 CNS): 26.8 µM

Compound: CNC(=O)OCc1nc(SC)n(C)c1COC(=O)NC
- TGI (P388 leukemia): 331 µM
- TGI (P388/ADR leukemia): 611 µM
- TGI (DLD-1 colon): 494 µM
- TGI (HOP-18 NSCLC): 491 µM
- TGI (SN12K1 renal): 250 µM
- TGI (KM20L2 colon): 482 µM
- TGI (MDA-N): 310 µM
- TGI (DMS 273 small cell lung): 251 µM
- TGI (XF 498 CNS): 446 µM

Compound: CCCCCC[C@H]1C(=O)O[C@H](C)[C@H](NC(=O)c2cccc(NC=O)c2OC)C(=O)O[C@@H](C)[C@@H]1OC(=O)CCC (tested in a mixture with another compound)
- GI50 (MDA-N): 11.1 µM
- TGI (MDA-N): 45.2 µM

Compound: Cc1cc(Cl)ccc1NC(=O)C1C(=O)N(c2ccc(Cl)cc2C)C(=O)/C1=N\NC(N)=S (stereo unspecified)
- TGI (RXF-631 renal): > 100 µM
- TGI (DLD-1 colon): > 100 µM
- TGI (HOP-18 NSCLC): 60.8 µM
- TGI (KM20L2 colon): 46.8 µM
- TGI (DMS 273 small cell lung): > 100 µM

Compound: OCC(O)C(O)C(O)c1nn(-c2ccc(F)cc2)c2nc3cc(Cl)c(Cl)cc3nc12 (stereo unspecified)
- TGI (DLD-1 colon): > 100 µM
- TGI (HOP-18 NSCLC): 52.7 µM
- TGI (KM20L2 colon): > 100 µM
- TGI (DMS 273 small cell lung): 48.2 µM
- TGI (XF 498 CNS): 24.6 µM

Compound: Nc1ncc2ncn(C3CCC(CO)O3)c2n1 (stereo unspecified)
- TGI (MDA-N): > 100 µM

Compound: CC1OC(OC2C(O)C(O)C(O)C(O)C2O)C(N)CC1N=C(N)C(=O)O (stereo unspecified)
- TGI (MDA-N): > 100 µM

Compound: COc1cc(N(C)C)c(OC)cc1C=C1C=CC=C1
- TGI (MDA-N): > 100 µM

Compound: COc1cc2c(c(OC)c1OC)C(=O)NCCC2
- TGI (P388 leukemia): > 100 µM
- TGI (P388/ADR leukemia): > 100 µM
- TGI (DLD-1 colon): > 100 µM
- TGI (HOP-18 NSCLC): > 100 µM
- TGI (SN12K1 renal): > 100 µM
- TGI (KM20L2 colon): > 100 µM
- TGI (DMS 273 small cell lung): > 100 µM
- TGI (XF 498 CNS): > 100 µM

Compound: C[C@H]1CC[P+](C)(c2ccccc2)C1 (stereo partly specified)
- TGI (DLD-1 colon): > 100 µM
- TGI (HOP-18 NSCLC): > 100 µM
- TGI (KM20L2 colon): > 100 µM
- TGI (DMS 273 small cell lung): > 100 µM

Compound: NCCCN=c1ccc2c3c1c(O)c1c(O)ccc(=O)c1c3[nH]n2CCNCCO
- TGI (P388 leukemia): 6.13 µM
- TGI (P388/ADR leukemia): 100 µM
- TGI (DLD-1 colon): 159 µM
- TGI (HOP-18 NSCLC): 17.8 µM
- TGI (SN12K1 renal): 16.3 µM
- TGI (KM20L2 colon): 38.4 µM
- TGI (MDA-N): 8.37 µM
- TGI (DMS 273 small cell lung): 0.403 µM
- TGI (XF 498 CNS): 6.05 µM

Compound: O=C(O)CSc1n[nH]c(-c2ccco2)n1
- TGI (RXF-631 renal): > 100 µM
- TGI (DLD-1 colon): > 100 µM
- TGI (KM20L2 colon): > 100 µM
- TGI (DMS 273 small cell lung): > 100 µM
- TGI (XF 498 CNS): > 100 µM

Compound: N#CCc1cccc(CC#N)c1Br
- TGI (DLD-1 colon): > 100 µM
- TGI (KM20L2 colon): > 100 µM
- TGI (DMS 273 small cell lung): > 100 µM
- TGI (XF 498 CNS): > 100 µM

Compound: Cc1ccc2ccc(-c3ccccc3)c3c2c1C(=O)c1ccccc1C3=O
- TGI (DLD-1 colon): > 100 µM
- TGI (HOP-18 NSCLC): > 100 µM
- TGI (KM20L2 colon): > 100 µM
- TGI (DMS 273 small cell lung): > 100 µM
- TGI (XF 498 CNS): 99.1 µM

Compound: COc1ccccc1C(=O)N(Cc1ccccc1)c1ccc(Cl)c(C(=O)OC(C)C)c1
- TGI (RXF-631 renal): > 100 µM
- TGI (DLD-1 colon): > 100 µM
- TGI (HOP-18 NSCLC): 56.3 µM
- TGI (KM20L2 colon): > 100 µM
- TGI (MDA-N): > 100 µM
- TGI (DMS 273 small cell lung): 37.5 µM
- TGI (XF 498 CNS): 43.4 µM

Compound: O=c1[nH]cnc2n[nH]nc12
- TGI (HOP-18 NSCLC): > 100 µM
- TGI (KM20L2 colon): > 100 µM
- TGI (DMS 273 small cell lung): > 100 µM
- TGI (XF 498 CNS): 83.5 µM

Compound: Cc1ccc(S(=O)C(C)C(Cl)c2ccccc2)cc1 (stereo unspecified)
- TGI (DLD-1 colon): > 100 µM
- TGI (HOP-18 NSCLC): > 100 µM
- TGI (KM20L2 colon): > 100 µM
- TGI (DMS 273 small cell lung): > 100 µM

Compound: Cn1c(=O)c2c(nc(N/N=C/c3ccccc3C(=O)O)n2C)n(C)c1=O
- TGI (MDA-N): > 100 µM

Compound: N#[N+]c1ccc(Nc2ccccc2)cc1
- GI50 (MDA-N): > 50 µg/mL
- TGI (MDA-N): > 50 µg/mL

Compound: O=C(O)c1ccccc1NCn1c(=S)sc2ccccc21
- TGI (MDA-N): > 100 µM

Compound: Clc1ccc(CN2CCCN(Cc3ccc(Cl)cc3)C2c2cc3ccccc3c3ccccc23)cc1
- TGI (MDA-N): > 100 µM

Compound: CC(=O)OCC1OC(n2c3c(cc(C#N)c2=S)CCCC3)C(OC(C)=O)C(OC(C)=O)C1OC(C)=O (stereo unspecified)
- TGI (MDA-N): > 100 µM

Compound: O=C1OC(=O)C([Se]c2ccccc2)=C1[Se]c1ccccc1
- TGI (RXF-631 renal): > 100 µM
- TGI (DLD-1 colon): > 100 µM
- TGI (HOP-18 NSCLC): > 100 µM
- TGI (KM20L2 colon): > 100 µM

Compound: COc1cccc(/C=N\NC(=O)C(C)SC(C)C(=O)N/N=C/c2cccc(OC)c2)c1 (stereo unspecified)
- TGI (DLD-1 colon): > 100 µM
- TGI (KM20L2 colon): > 100 µM
- TGI (DMS 273 small cell lung): 97 µM
- TGI (XF 498 CNS): > 100 µM

Compound: C=C1CC[C@H]2C(C)=CC[C@H]3C(=C)C(=O)O[C@@H]3[C@@H]12
- TGI (MDA-N): > 100 µM

Compound: O=C(/C=C/c1ccccc1O)c1ccccc1Cl
- TGI (RXF-631 renal): > 100 µM
- TGI (DLD-1 colon): > 100 µM
- TGI (HOP-18 NSCLC): > 100 µM
- TGI (KM20L2 colon): > 100 µM
- TGI (DMS 273 small cell lung): > 100 µM
- TGI (XF 498 CNS): > 100 µM

Compound: CC1(C)OC(=O)C(=C2CCC(C(=O)Nc3cccc(C(F)(F)F)c3)N2)C(=O)O1 (stereo unspecified)
- TGI (DLD-1 colon): > 100 µM
- TGI (HOP-18 NSCLC): > 100 µM
- TGI (KM20L2 colon): > 100 µM
- TGI (DMS 273 small cell lung): > 100 µM
- TGI (XF 498 CNS): 89.8 µM

Compound: O=C1C(=O)C2(CC1S(=O)(=O)c1ccccc1)c1ccccc1-c1ccccc12 (stereo unspecified)
- TGI (DLD-1 colon): 66.1 µM
- TGI (HOP-18 NSCLC): > 10 µM
- TGI (KM20L2 colon): > 100 µM
- TGI (DMS 273 small cell lung): 36.2 µM

Compound: COc1cc2c3cc1Oc1c(OC)c(OC)cc4c1C(Cc1ccc(O)c(c1)Oc1ccc(cc1)CC3N(C)CC2)N(C)CC4 (stereo unspecified)
- TGI (MDA-N): 60 µM

Compound: O=C1CCC(=O)N1Sc1ccccc1
- TGI (RXF-631 renal): > 100 µM
- TGI (DLD-1 colon): > 100 µM
- TGI (KM20L2 colon): > 100 µM
- TGI (DMS 273 small cell lung): > 100 µM

Compound: COc1ccccc1NC(=O)C1=C(C)NC(C)=C(C(=O)Nc2ccccc2OC)C1c1ccco1
- TGI (RXF-631 renal): > 92.6 µM
- TGI (DLD-1 colon): > 100 µM
- TGI (HOP-18 NSCLC): 73.9 µM
- TGI (KM20L2 colon): 13 µM
- TGI (MDA-N): > 100 µM
- TGI (DMS 273 small cell lung): > 100 µM
- TGI (XF 498 CNS): > 100 µM

Compound: NC1=NCN(C2OC(CO)C(O)C2O)C(=O)N1 (stereo unspecified)
- TGI (P388 leukemia): 229 µM
- TGI (P388/ADR leukemia): 196 µM
- TGI (DLD-1 colon): 1560 µM
- TGI (HOP-18 NSCLC): 1060 µM
- TGI (SN12K1 renal): 619 µM
- TGI (KM20L2 colon): 1530 µM
- TGI (MDA-N): 381 µM
- TGI (DMS 273 small cell lung): 620 µM
- TGI (XF 498 CNS): 197 µM
